Our source for the IC50 values is US9682141B2, “Combination of kinase inhibitors and uses thereof” (INTELLIKINE LLC, priority 2011, dated 2017).

In general, IC50 refers to the concentration needed to halve the response being measured.

Common to all, as to type: biochemical
In one experiment the target is PI3K γ (Homo sapiens (Human), UniProt P48736). Briefly: PI 3-Kinase (human) HTRF assay, p110γ. The following applies: read-out: PI3K γ IC50.
In another experiment the target is PI3K α (Homo sapiens (Human), UniProt P42336). The experiment in a line: PI 3-Kinase (human) HTRF assay, p110α/p85α. Background: In TR-FRET formats the signal depends on donor and acceptor labels being close together.
PI3K α, sequence (P42336 whole entry): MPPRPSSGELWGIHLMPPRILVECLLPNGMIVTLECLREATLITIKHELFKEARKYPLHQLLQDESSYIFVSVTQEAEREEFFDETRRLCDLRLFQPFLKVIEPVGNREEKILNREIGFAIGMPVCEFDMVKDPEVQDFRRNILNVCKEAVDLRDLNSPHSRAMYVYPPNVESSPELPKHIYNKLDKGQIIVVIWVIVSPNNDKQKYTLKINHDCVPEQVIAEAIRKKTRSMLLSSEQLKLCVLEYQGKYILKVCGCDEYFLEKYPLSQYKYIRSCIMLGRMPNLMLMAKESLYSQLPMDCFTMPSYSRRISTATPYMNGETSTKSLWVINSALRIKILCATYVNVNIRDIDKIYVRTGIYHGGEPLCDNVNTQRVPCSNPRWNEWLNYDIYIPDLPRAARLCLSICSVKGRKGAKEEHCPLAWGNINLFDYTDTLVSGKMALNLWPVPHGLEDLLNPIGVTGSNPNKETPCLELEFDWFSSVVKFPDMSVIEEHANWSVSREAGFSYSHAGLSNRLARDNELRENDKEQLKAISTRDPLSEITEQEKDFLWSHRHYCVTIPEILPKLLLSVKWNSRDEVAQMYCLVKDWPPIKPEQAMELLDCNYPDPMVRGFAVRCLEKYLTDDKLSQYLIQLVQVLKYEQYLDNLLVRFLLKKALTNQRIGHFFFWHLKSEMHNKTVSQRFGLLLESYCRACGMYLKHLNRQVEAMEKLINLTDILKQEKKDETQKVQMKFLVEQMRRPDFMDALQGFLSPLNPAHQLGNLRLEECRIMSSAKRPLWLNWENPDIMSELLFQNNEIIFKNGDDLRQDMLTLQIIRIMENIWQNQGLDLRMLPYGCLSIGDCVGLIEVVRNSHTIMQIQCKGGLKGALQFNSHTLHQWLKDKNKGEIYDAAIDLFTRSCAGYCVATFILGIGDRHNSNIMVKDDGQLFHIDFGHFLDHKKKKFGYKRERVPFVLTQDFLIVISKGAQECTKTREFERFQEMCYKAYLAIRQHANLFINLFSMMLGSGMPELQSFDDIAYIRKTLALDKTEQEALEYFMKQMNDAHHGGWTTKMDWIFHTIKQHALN
PI3K α, sequence (P27986 whole entry partner): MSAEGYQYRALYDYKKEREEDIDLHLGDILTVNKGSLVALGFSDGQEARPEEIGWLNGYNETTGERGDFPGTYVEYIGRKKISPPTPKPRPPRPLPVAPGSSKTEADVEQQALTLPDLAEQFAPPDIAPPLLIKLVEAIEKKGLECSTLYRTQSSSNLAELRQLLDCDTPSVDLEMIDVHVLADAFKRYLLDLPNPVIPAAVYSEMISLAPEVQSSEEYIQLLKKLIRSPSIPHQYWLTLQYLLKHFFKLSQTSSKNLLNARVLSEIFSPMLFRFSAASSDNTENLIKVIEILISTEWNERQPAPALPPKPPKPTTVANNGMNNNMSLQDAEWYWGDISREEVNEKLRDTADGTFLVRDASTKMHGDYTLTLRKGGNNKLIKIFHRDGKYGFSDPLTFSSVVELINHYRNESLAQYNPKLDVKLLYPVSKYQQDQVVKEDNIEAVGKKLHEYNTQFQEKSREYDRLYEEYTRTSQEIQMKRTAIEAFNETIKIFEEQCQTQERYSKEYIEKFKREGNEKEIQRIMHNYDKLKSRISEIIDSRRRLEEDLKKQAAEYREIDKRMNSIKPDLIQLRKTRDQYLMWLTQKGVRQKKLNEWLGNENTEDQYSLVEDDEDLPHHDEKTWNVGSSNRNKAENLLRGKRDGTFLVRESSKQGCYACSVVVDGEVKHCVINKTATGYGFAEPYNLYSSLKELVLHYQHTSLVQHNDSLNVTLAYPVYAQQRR
For the next experiment, the target named is PI3K β (Homo sapiens (Human), UniProt P42338). The experiment in a line: PI 3-Kinase (human) HTRF assay, p110β/p85α.
PI3K β, sequence (P42338 whole entry): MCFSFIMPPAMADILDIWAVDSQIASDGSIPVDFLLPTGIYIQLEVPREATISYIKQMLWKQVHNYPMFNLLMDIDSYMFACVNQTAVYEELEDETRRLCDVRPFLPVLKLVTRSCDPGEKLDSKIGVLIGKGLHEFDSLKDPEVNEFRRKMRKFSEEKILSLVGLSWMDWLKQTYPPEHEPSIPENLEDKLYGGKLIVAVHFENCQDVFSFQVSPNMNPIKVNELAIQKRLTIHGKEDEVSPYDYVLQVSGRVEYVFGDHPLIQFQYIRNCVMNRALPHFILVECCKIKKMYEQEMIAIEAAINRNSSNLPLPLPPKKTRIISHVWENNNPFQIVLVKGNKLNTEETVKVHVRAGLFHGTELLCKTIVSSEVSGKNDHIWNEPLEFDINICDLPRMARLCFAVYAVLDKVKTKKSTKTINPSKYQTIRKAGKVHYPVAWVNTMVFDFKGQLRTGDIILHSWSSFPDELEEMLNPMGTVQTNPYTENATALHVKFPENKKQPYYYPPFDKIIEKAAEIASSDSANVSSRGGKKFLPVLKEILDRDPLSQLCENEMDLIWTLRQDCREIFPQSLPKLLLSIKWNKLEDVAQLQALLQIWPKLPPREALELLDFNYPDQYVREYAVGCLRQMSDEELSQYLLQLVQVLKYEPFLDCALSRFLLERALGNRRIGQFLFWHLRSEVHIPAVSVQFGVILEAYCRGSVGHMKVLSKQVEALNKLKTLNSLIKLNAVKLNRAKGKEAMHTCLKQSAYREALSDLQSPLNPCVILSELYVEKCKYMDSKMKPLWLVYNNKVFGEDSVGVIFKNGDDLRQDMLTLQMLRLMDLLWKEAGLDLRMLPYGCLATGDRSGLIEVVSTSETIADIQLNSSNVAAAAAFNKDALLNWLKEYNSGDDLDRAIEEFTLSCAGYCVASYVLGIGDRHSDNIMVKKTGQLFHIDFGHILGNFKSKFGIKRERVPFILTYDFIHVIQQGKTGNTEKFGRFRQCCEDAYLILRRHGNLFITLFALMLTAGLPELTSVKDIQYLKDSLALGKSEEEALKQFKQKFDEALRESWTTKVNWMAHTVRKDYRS
PI3K β, sequence (P27986 whole entry partner): as the sequence (P27986 whole entry partner) above
The target of a further experiment is PI3K δ (Homo sapiens (Human), UniProt O00329). The experiment in a line: PI 3-Kinase (human) HTRF assay, p110δ/p85α.
PI3K δ, sequence (O00329 whole entry): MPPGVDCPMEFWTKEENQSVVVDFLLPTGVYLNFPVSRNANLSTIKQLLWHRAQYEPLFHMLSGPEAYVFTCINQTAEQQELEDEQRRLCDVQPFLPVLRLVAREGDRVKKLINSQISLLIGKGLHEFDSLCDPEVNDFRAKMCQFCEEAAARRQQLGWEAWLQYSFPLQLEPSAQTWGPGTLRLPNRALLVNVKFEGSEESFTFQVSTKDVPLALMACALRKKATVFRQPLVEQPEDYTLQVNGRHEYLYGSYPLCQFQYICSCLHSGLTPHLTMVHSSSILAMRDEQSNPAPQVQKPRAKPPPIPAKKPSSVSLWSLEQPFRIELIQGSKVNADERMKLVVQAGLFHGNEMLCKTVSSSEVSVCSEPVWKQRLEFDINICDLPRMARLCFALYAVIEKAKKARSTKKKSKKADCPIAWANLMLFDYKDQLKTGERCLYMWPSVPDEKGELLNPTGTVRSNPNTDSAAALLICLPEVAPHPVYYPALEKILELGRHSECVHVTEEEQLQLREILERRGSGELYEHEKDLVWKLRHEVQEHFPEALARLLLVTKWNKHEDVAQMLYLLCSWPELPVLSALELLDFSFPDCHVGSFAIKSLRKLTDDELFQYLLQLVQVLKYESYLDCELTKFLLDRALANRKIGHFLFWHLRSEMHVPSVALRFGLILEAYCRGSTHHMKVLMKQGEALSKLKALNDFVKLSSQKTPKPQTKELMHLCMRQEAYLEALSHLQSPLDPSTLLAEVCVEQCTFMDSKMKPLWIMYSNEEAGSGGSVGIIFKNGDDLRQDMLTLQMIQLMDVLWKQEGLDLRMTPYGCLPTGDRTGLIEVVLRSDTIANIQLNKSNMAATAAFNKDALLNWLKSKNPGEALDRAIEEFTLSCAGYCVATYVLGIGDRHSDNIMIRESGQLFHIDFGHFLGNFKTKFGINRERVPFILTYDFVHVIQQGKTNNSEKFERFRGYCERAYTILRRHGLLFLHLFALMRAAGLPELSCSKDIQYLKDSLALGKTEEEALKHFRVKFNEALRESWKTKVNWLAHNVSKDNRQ
PI3K δ, sequence (P27986 whole entry partner): as the sequence (P27986 whole entry partner) above

PI3K γ, sequence (P48736 whole entry): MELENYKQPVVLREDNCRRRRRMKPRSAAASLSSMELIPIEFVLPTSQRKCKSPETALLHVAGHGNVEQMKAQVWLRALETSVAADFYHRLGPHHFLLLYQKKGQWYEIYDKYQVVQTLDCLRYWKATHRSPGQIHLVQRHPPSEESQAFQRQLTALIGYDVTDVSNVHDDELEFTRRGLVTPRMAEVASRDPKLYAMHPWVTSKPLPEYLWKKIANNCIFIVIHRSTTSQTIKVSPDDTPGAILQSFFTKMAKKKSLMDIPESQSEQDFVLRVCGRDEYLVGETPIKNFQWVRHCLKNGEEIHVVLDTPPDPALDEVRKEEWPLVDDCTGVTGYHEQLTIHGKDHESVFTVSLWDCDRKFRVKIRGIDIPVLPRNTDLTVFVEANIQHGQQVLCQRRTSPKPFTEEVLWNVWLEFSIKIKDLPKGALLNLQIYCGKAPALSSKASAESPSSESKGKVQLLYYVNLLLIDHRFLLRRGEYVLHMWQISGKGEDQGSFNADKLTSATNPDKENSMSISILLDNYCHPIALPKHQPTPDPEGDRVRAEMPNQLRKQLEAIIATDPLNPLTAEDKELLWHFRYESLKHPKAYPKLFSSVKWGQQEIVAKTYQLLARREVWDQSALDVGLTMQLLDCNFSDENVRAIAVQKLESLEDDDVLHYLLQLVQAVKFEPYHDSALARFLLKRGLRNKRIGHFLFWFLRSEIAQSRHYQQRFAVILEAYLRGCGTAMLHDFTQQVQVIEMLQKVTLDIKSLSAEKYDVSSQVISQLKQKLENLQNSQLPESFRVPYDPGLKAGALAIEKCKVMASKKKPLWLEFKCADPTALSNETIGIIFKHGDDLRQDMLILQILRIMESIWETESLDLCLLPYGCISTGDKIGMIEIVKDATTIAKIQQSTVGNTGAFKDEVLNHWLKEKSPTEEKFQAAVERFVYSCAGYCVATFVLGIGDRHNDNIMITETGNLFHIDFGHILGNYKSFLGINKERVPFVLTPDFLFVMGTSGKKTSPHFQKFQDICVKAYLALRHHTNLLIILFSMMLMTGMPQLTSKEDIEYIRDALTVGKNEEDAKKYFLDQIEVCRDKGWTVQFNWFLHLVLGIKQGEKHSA
Procedure for PI3K α: (§1) An exemplary system is PI 3-Kinase (human) HTRF™ Assay from Upstate. […] Briefly, the assay is a time resolved FRET assay that indirectly measures PIP3 product formed by the activity of a PI3-K. The kinase reaction is performed in a microtitre plate (e.g., a 384 well microtitre plate). The total reaction volume is approximately 20 ul per well. In the first step, each well receives 2 ul of test compound in 20% dimethylsulphoxide resulting in a 2% DMSO final concentration. Next, approximately 14.5 ul of a kinase/PIP2 mixture (diluted in 1× reaction buffer) is added per well for a final concentration of 0.25-0.3 ug/ml kinase and 10 μM PIP2. The plate is sealed and incubated for 15 minutes at room temperature. To start the reaction, 3.5 ul of ATP (diluted in 1× reaction buffer) is added per well for a final concentration of 10 μM ATP. The plate is sealed and incubated for 1 hour at room temperature. The reaction is stopped by adding 5 ul of Stop Solution per well and then 5 ul of Detection Mix is added per well. The plate is sealed, incubated for 1 hour at room temperature, and then read on an appropriate plate reader. Data is analyzed and IC50s are generated using GraphPad Prism 5. For PI3K α, β, δ, and γ, the nM concentration of inhibitor to reach IC50 is provided.
Procedure for PI3K β: as §1

For the compound `CC1CN(C2CN(c3cnc4ccc(-c5ccc6oc(N)nc6c5)nc4n3)C2)CCO1` (stereo not drawn), the IC50 at PI3K γ was less than 10000 nM; against PI3K α, less than 1000 nM; at PI3K β, greater than 10 µM; on PI3K δ it was greater than 10 µM.

On to `Nc1nc2cc(-c3ccc4ncc(C(=O)N5CCNCC5)n4c3)ccc2o1`, for which the IC50 on PI3K γ is greater than 10000 nM; on PI3K α it was less than 100 nM; against PI3K β, less than 10 µM; at PI3K δ, greater than 10 µM.

In the case of `Nc1nc2cc(-c3c[nH]c4nccc(-c5ccncc5)c34)ccc2o1` [Compound 25], the IC50 at PI3K γ is less than 10000 nM; on PI3K α, less than 10000 nM; against PI3K β, greater than 10 µM; on PI3K δ, greater than 10 µM.

With `CS(=O)(=O)N1CCC(Nc2cnc3ccc(-c4ccc5oc(N)nc5c4)cc3n2)CC1`, the IC50 at PI3K γ is less than 100 nM; against PI3K α, less than 100 nM; against PI3K β it was less than 10 µM; on PI3K δ it was less than 0.1 µM.

For the compound `Nc1nc2cc(-c3ccc4ncc(N5CCC(F)(F)CC5)nc4n3)ccc2o1`, the IC50 at PI3K γ was less than 100 nM; on PI3K α, less than 100 nM; against PI3K β it was greater than 10 µM; at PI3K δ, greater than 10 µM.

As to `Nc1nc2cc(-c3ccc4ncc(N5CC(N6CC7CCC(C6)O7)C5)nc4n3)ccc2o1`, the half-maximal inhibitory concentration (IC50) at PI3K γ was less than 10000 nM; against PI3K α, less than 1000 nM; on PI3K β, greater than 10 µM; against PI3K δ, greater than 10 µM.

`Nc1nc2cc(-c3ccc4ncc(N5CCC(O)CC5)nc4n3)ccc2o1`: the IC50 on PI3K γ is less than 100 nM; on PI3K α it was less than 100 nM; on PI3K β it was less than 10 µM; against PI3K δ, greater than 10 µM.

With `Nc1nc2cc(-c3ccc4ncc(C5=CCOCC5)nc4n3)ccc2o1`, the IC50 at PI3K γ was less than 100 nM; at PI3K α, less than 100 nM; on PI3K β, less than 10 µM; against PI3K δ, greater than 10 µM.

On to `NCC(=O)N1CCN(c2cnc3ccc(-c4ccc5oc(N)nc5c4)cc3n2)CC1`, for which the half-maximal inhibitory concentration (IC50) at PI3K γ is less than 1000 nM; on PI3K α, less than 100 nM; against PI3K β it was less than 1 µM; against PI3K δ, less than 1 µM.

Turning to `Nc1nc2cc(-c3ccc4ncnc(NC5CCOCC5)c4c3)ccc2o1` [Compound 24], the 50% inhibitory concentration (IC50) on PI3K γ was less than 100 nM; against PI3K α, less than 100 nM; at PI3K β, less than 1 µM; against PI3K δ, less than 0.1 µM.

`Nc1nc2cc(-c3ccc4ncc(-c5ccccc5)nc4c3)ccc2o1`: the IC50 at PI3K γ was greater than 10000 nM; against PI3K α, less than 1000 nM; against PI3K β, greater than 10 µM; against PI3K δ, greater than 10 µM.

On to `Nc1nc2cc(-c3ccc4ncc(N5CC(N6CCN(C7CC7)CC6)C5)cc4n3)ccc2o1`, for which the IC50 at PI3K γ was less than 1000 nM; on PI3K α, less than 100 nM; against PI3K β it was less than 10 µM; at PI3K δ, less than 10 µM.

Consider `Nc1nc2ccc(-c3ccc4ncc(N5CCOCC5)nc4c3)cc2s1`, for which the IC50 on PI3K γ was less than 1000 nM; on PI3K α it was less than 100 nM; against PI3K β it was greater than 10 µM; against PI3K δ, greater than 10 µM.

As for `CN1CCN(C(=O)c2cnc3ccc(-c4ccc5oc(N)nc5c4)cc3n2)CC1`, the IC50 was greater than 10000 nM on PI3K γ, less than 10000 nM against PI3K α, greater than 10 µM at PI3K β and greater than 10 µM against PI3K δ.

Consider `CN1CC(C(=O)N2CCC(Nc3ncnc4ccc(-c5ccc6oc(N)nc6c5)cc34)CC2)C1`, for which the IC50 at PI3K γ is less than 1000 nM; against PI3K α, less than 100 nM; against PI3K β, less than 1 µM; at PI3K δ, less than 0.1 µM.

In the case of `CNC(=O)N1CCN(c2cnc3ccc(-c4ccc5oc(N)nc5c4)cc3n2)CC1`, the 50% inhibitory concentration (IC50) at PI3K γ was less than 100 nM; on PI3K α, less than 100 nM; on PI3K β, less than 1 µM; against PI3K δ, less than 10 µM.

Take `CC(C)(C)N1CCN(C(=O)c2cnc3ccc(-c4ccc5oc(N)nc5c4)cn23)CC1`: the IC50 at PI3K γ is less than 10000 nM; at PI3K α, less than 100 nM; on PI3K β, less than 10 µM; against PI3K δ it was less than 10 µM.

Turning to `Nc1nc2cc(-c3ccc4ncc(C(=O)N5CCS(=O)(=O)CC5)n4c3)ccc2o1`, the IC50 at PI3K γ was less than 10000 nM; on PI3K α it was less than 1000 nM; against PI3K β it was greater than 10 µM; on PI3K δ it was greater than 10 µM.
